# In US20120245346A1, “MALEIC ACID SALT AND CRYSTAL THEREOF” (Kyorin Pharmaceutical Co., Ltd., priority 2009, published 2012):
# Counter-ions that a name gives are not always drawn. Like-named read-outs stand apart in the source and are kept apart here.
# Key:
# Assay type in all cases: physicochemical
# [1] = Stability as a drug substance, 2-week storage, HPLC assay of mainly degradation product (Test Example 1, Stage 1); conditions: 2-week storage at 25° C./75% RT (closed system), increase in HPLC area % of mainly degradation product
# Procedure: (§1) As the monomaleic acid salt, the sample in Example 5 was used in Stage 1 of Table 2, and the sample in Example 1 was used in Stage 2. The other samples in respective Stages of Table 2 were prepared in accordance with Patent Literature 1. The solubility and the stability as a drug substance of the respective samples were examined in Stage 1, and the crystallinity, phenomenon of crystal polymorphism, and presence or absence of adhesion water were examined in Stage 2.
# Stability as a drug substance: The sample after 2-week storage at 25° C./75% RT (closed system) was assayed by high-performance liquid chromatography (HPLC) under conditions described below. When the increase in area percentage (%) of a mainly degradation product is less than +0.5%, the stability of drug substances is represented as circle (◯), and when the increase is +0.5% or more, the stability of drug substances is represented as cross mark (x). In Test Example 2, the mainly degradation product was assayed by HPLC under the same conditions.
# Conditions of HPLC in test of stability as a drug substance
# column: Atlantis dC18, 2.1 mm φ×15 cm, 3 μm Measurement wavelength: 254 nm column temperature: 40° C. Flow rate: 0.2 mL/min Mobile phase A: 0.05% formic acid aqueous solution Mobile phase B: 0.05% formic acid-acetonitrile solution Transfer of mobile phases: The mixed ratio of mobile phase A and mobile phase B is changed as shown in Table 1 to control the concentration gradient.
# [2] = Adhesion water by thermal analysis TG-DTA (Test Example 1, Stage 2); conditions: for ADHESION WATER: decrease (%) in TG-DTA chart at about 50° C., Stage 2; for adhesion water (in words): TG-DTA decrease (%) at about 50° C.
# Procedure: (§2) A sample (5 mg) was placed in a sample pan (a container made of aluminum), and thermal analysis TG-DTA of the sample was performed using EXSTAR 6000 thermal analyzer manufactured by Seiko Instruments Inc.
# as §1
# Adhesion water: When decrease (%) in the chart obtained from the thermal analysis TG-DTA is seen at about 50° C., the adhesion water is represented as “Presence,” and when the decrease (%) is not seen, the adhesion water is represented as “None.”
# [3] = Solubility in water (Test Example 1, Stage 1)
# Procedure: as §1
# Solubility: When the ratio of dissolved sample to water is 10 mg/mL or more, the solubility of the sample is represented as circle (◯), and when the ratio is 10 mg/mL or less, the solubility is represented as cross mark (x).
# [4] = Crystallinity by powder x-ray diffraction (Test Example 1, Stage 2); conditions: for CRYSTALLINITY: powder x-ray diffraction peak intensity, Stage 2; for crystallinity (in words): powder x-ray diffraction
# Procedure: (§3) A sample (about 100 mg) was (lightly) pulverized in an agate mortar, and a packed section of a sample flat holder made of glass was filled with the pulverized sample. Powder x-ray diffraction of the sample was then performed using RINT2200 powder x-ray diffractometer (Rigaku Corporation).
# as §1
# Crystallinity: In powder x-ray diffraction, when a peak intensity is 5000 cps or more, the crystallinity is represented as “High,” and when it is 5000 cps or less, the crystallinity is represented as “Low.”
# [5] = Development of crystal polymorphism by TG-DTA and powder x-ray diffraction (Test Example 1, Stage 2); conditions: TG-DTA versus powder x-ray diffraction
# Procedure: as §2, §3, §1
# Development of crystal polymorphism: For crystals of the same salt, when the crystal structure shown by the thermal analysis TG-DTA is different from that shown by the powder x-ray diffraction, the development of crystal polymorphism is represented as “Presence”. On the other hand, when the thermal analysis TG-DTA and the powder x-ray diffraction show the same crystal structure, the development of crystal polymorphism is represented as “None.”
# [6] = ratio of dissolved sample to water, Stage 1
Structure (SMILES),STABILITY AS DRUG SUBSTANCE [1],ADHESION WATER [2],"SOLUBILITY [3, 6]",CRYSTALLINITY [4],PHENOMENON OF CRYSTAL POLYMORPHISM [5],crystallinity (in words) [4],adhesion water (in words) [2],other results
"CCc1cc(OC)cc2nc(-c3cccnc3N3CC[C@H](N(C)C)C3)oc(=O)c12 [DIHYDROCHLORIDE, 2-[2-((S)-3-dimethylaminopyrrolidin-1-yl)pyridin-3-yl]-5-ethyl-7-methoxy-4H-benz[d][1,3]oxazin-4-one]",x (when the increase is +0.5% or more),PRESENCE,∘,,,,,solubility in water ([3]; water): ≥ 10000 µg/mL
"CCc1cc(OC)cc2nc(-c3cccnc3N3CC[C@H](N(C)C)C3)oc(=O)c12 [FREE FORM, 2-[2-((S)-3-dimethylaminopyrrolidin-1-yl)pyridin-3-yl]-5-ethyl-7-methoxy-4H-benz[d][1,3]oxazin-4-one]",∘,,x (when the ratio is 10 mg/mL or less),LOW,AMORPHOUS,,,"solubility in water ([3]; water, listed as free base): ≤ 2000 µg/mL"
"CCc1cc(OC)cc2nc(-c3cccnc3N3CC[C@H](N(C)C)C3)oc(=O)c12.Cl.O [MONOHYDROCHLORIDE, 2-[2-((S)-3-dimethylaminopyrrolidin-1-yl)pyridin-3-yl]-5-ethyl-7-methoxy-4H-benz[d][1,3]oxazin-4-one hydrochloride monohydrate]",∘,PRESENCE,∘,LOW,PRESENCE,low crystallinity and high amorphous content,adhesion water was present,"SOLUBILITY ([3]; water, read-out: solubility in water): ≥ 10000 µg/mL"
"CCc1cc(OC)cc2nc(-c3cccnc3N3CC[C@H](N(C)C)C3)oc(=O)c12 [MONOMALEIC ACID, 2-[2-((S)-3-dimethylaminopyrrolidin-1-yl)pyridin-3-yl]-5-ethyl-7-methoxy-4H-benz[d][1,3]oxazin-4-one monomaleate]",,,,,,high crystallinity,adhesion water was not present,"CRYSTALLINITY ([4]; monomaleate): HIGH; STABILITY AS DRUG SUBSTANCE ([1]; monomaleate): ∘; ADHESION WATER ([2]; monomaleate): NONE; PHENOMENON OF CRYSTAL POLYMORPHISM ([5]; monomaleate): PRESENCE; SOLUBILITY ([3]; ratio of dissolved sample to water, Stage 1, monomaleate): ∘; solubility in water ([3]; water, listed as monomaleic acid salt, monomaleate): ≥ 10000 µg/mL"
"CCc1cc(OC)cc2nc(-c3cccnc3N3CC[C@H](N(C)C)C3)oc(=O)c12 [½D-TARTARIC ACID, 2-[2-((S)-3-dimethylaminopyrrolidin-1-yl)pyridin-3-yl]-5-ethyl-7-methoxy-4H-benz[d][1,3]oxazin-4-one]",x (when the increase is +0.5% or more),PRESENCE,∘,,,,,"solubility in water ([3]; water, listed as 1/2D-tartaric acid salt): ≥ 10000 µg/mL"
"CCc1cc(OC)cc2nc(-c3cccnc3N3CC[C@H](N(C)C)C3)oc(=O)c12 [¾L-TARTARIC ACID, 2-[2-((S)-3-dimethylaminopyrrolidin-1-yl)pyridin-3-yl]-5-ethyl-7-methoxy-4H-benz[d][1,3]oxazin-4-one]",∘,PRESENCE,,,,,,"SOLUBILITY ([3]; water, ratio of dissolved sample to water, Stage 1, read-out: SOLUBILITY): ≤ 10000 µg/mL"
